Here are results for 18 compounds from PMC7394005, “Assessing the Selectivity of FXR, LXRs, CAR, and RORγ Pharmaceutical Ligands With Reporter Cell Lines” (Frontiers in Pharmacology, 2020).

Holding throughout (assay type): cell-based
The target of one assay is T1, human FXR (Homo sapiens, UniProt Q96RI1).
T1 construct: FXR (R193-Q486); expressed in transfected cells; host or cells: HG5LN (HeLa cells carrying the (GAL4RE)5-βGlob-Luc-SVNeo reporter)
T1 sequence (Q96RI1 193-486): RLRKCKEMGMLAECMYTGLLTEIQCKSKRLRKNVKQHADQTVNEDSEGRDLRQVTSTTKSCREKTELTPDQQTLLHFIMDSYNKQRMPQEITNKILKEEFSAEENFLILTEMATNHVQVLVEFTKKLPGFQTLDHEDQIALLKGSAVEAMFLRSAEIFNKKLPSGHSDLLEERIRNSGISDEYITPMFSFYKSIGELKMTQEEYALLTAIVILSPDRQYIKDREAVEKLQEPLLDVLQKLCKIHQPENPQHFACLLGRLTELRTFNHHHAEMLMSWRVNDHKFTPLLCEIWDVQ
The experiment in a line: HG5LN GAL4-FXR reporter cell line, antagonist mode in presence of GW4064. As to conditions: for FXR (GW4064 100 nM) % min act: in presence of GW4064 100 nM (80% of maximal activity), at 10^-5 M (10^-6 M *, 3 10^-6 M **). From the text: (§1) To construct GAL4-NR chimeras, individual LBDs of human FXR (R193-Q486), LXRα (A187-E447), LXRβ (G199-E461), CAR (M76-S348), and RORγ (S97-K518) were amplified by PCR with primers containing XhoI and SacI restriction sites (FXR), XhoI and BamHI (LXRs, CAR, RORγ) and inserted in pSG5-GAL4(DBD)-puromycin plasmid. To construct GAL4-CAR (+ APYLT) (M76-S353), the five amino acids APYLT were inserted by overlap extension PCR between amino acids P270 and D271 of CAR.
(§2) To characterize the specificity of chemicals for human FXR, LXRα, LXRβ, CAR and RORγ, we established in a similar manner HG5LN FXR, LXRα, LXRβ, CAR WT, CAR (APYLT) and RORγ reporter cell lines. […] These cells were stably transfected by pSG5-GAL4 (DBD)-NRs (LBD)-puromycin plasmid and selected in presence of 0.5 µg/ml puromycin. […] From each HG5LN NR cells, 5 to 10 clones were chosen for their ligand inducibility of luciferase expression. […] The most inducible clones were expanded and rechecked for inducibility and aliquots were frozen at different passages. One clone per receptor was maintained in culture and used for ligand screening. HG5LN cells were cultured in Dulbecco’s modified Eagle’s medium (DMEM): Nutrient Mixture F-12 (DMEM/F-12) containing phenol red and 1 g/l glucose and supplemented with 5% fetal bovine serum, 100 units/ml of penicillin, 100 µg/ml of streptomycin and 1 mg/ml geneticin, in 5% CO2 humidified atmosphere at 37°C. Stably transfected cell lines derived from HG5LN cells were cultured in the same culture medium supplemented with 0.5 µg/ml puromycin.
(§3) Individual reporter cell lines were seeded at a density of 40,000 cells per well in 96-well white opaque tissue culture plates (Greiner CellStar) in Dulbecco’s Modified Eagle Medium: Nutrient Mixture F-12 (DMEM/F-12) without phenol red and 1 g/l glucose and supplemented with 5% stripped fetal bovine serum, 100 units/ml of penicillin, 100 µg/ml of streptomycin (test medium). Chemicals to be tested were added 24h later, and cells were incubated at 37°C for 16h. Experiments were performed in quadruplicates. At the end of the incubation period, culture medium was replaced with test medium containing 0.3 mM luciferin solution. Luciferase activity was measured for 2s in intact living cells after 10 min stabilization using a Micro Beta Wallac luminometer (PerkinElmer). EC50 values were calculated using GraphPad Prism (GraphPad Software Inc).
(§4) Chemicals tested for agonism on FXR, LXRs, CAR (+ APYLT), PXR, and antagonism on CAR and RORγ were tested alone, without addition of any other ligand.
(§5) In the transactivation assay, each compound was tested at various concentrations in three independent experiments at least. For each experiment, tests were performed in quadruplicates for each concentration, and data are expressed by means values with standard deviations. Individual agonist dose–response curves, in the absence and presence of antagonist, were fitted using the sigmoid dose-response function of a graphics and statistics software program (GraphPad Prism, version 5.0). EC50 (effective concentration for half-maximal luciferase activity) and IC50 (half-maximal inhibitory concentration) values were calculated from equations used to fit the data in this graphic software. Transactivation data are presented as EC50 and IC50 values for each compound tested. To analyze significances, we compared individual compound treatments with controls using one-way analysis of variance (ANOVA) with the help of GraphPad Prism software.

Another assay addresses T2, human LXRα (Homo sapiens, UniProt Q13133).
T2 construct: LXRα (A187-E447); expressed in transfected cells; host or cells: HG5LN (HeLa cells carrying the (GAL4RE)5-βGlob-Luc-SVNeo reporter)
T2 sequence (Q13133 187-447): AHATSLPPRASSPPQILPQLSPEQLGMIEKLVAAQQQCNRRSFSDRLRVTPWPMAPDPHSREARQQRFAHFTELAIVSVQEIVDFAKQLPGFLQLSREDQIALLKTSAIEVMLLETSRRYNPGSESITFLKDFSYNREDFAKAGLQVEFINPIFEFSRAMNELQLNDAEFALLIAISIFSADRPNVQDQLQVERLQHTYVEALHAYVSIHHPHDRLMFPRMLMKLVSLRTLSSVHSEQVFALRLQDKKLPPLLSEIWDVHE
The experiment in a line: HG5LN GAL4-LXRα reporter cell line, antagonist mode in presence of T0901317. Particulars: for LXRα (T0901317 20 nM) % min act: in presence of T0901317 20 nM (80% of maximal activity), at 10^-5 M (10^-6 M *, 3 10^-6 M **).
Source text: as §1, §2, §3, §4, §5

A further assay has as its target T3, human LXRβ (Homo sapiens, UniProt P55055).
T3 construct: LXRβ (G199-E461); expressed in transfected cells; host or cells: HG5LN (HeLa cells carrying the (GAL4RE)5-βGlob-Luc-SVNeo reporter)
T3 sequence (P55055 198-460 limits assumed): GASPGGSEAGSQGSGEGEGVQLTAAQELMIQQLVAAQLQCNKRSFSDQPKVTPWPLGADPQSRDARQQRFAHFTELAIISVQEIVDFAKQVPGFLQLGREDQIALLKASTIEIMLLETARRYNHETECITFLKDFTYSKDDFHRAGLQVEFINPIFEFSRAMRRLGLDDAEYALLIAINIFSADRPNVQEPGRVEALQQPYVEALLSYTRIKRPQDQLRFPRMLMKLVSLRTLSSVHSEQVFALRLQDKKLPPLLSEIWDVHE
Description: HG5LN GAL4-LXRβ reporter cell line, antagonist mode in presence of T0901317. As to conditions: for LXRβ (T0901317 100 nM) % min act: in presence of T0901317 100 nM (80% of maximal activity), at 10^-5 M (10^-6 M *, 3 10^-6 M **).
Source text: as §1, §2, §3, §4, §5

The mark [1] stands for this setting: read-out: FXR (GW4064 100 nM) IC50, in presence of GW4064 100 nM, NE = No effect.
Where [2] appears, read: read-out: LXRα (T0901317 20 nM) IC50, in presence of T0901317 20 nM, NE = No effect.
[3] abbreviates: read-out: LXRβ (T0901317 100 nM) IC50, in presence of T0901317 100 nM, NE = No effect.

Read-outs that look alike come from different tables or passages of the source.

For orientation: IC50 means the point on the concentration scale where inhibition reaches its midpoint. With `CCOC(=O)c1ccc(CN(Cc2ccc(-c3cccc(S(C)(=O)=O)c3)cc2)S(=O)(=O)c2c(C)cc(C)cc2C)o1` [SR9238], the IC50 was greater than 10 µM on human FXR (setting [1]), 0.026 ± 0.005 µM at human LXRα and 0.005 ± 0.001 µM at human LXRβ. Besides, the “LXRα (T0901317 20 nM) % min act” value at human LXRα (NE = No effect) amounted to 2%. The “LXR β-subtype specificity (fold, over α subtype)” value on human LXRβ (from IC50 values on LXRα and LXRβ) was 5 fold. Moreover, the “LXRβ (T0901317 100 nM) % min act” value on human LXRβ (NE = No effect) was 1%.
`COC(=O)/C=C/c1cccc(N(Cc2ccc(-c3ccc(N(C)C)cc3)cc2)C(=O)C2CCCCC2)c1` [Feraxamine]: the “FXR (GW4064 100 nM) % min act” value on human FXR (NE = No effect) came to 33%. Further, the 50% inhibitory concentration (IC50) at human FXR (setting [1]) is 0.687 ± 0.103 µM; at human LXRα (setting [2]) it was greater than 10 µM; at human LXRβ (setting [3]), greater than 10 µM.
As to `CC(=O)Nc1nc(C)c(S(=O)(=O)Nc2ccc(C(O)(C(F)(F)F)C(F)(F)F)cc2)s1` [SR1001], the IC50 at human FXR (setting [1]), on human LXRα (setting [2]) and at human LXRβ (setting [3]) was greater than 10 µM throughout.
For the compound `CC(C)c1onc(-c2c(Cl)cccc2Cl)c1COc1ccc(/C=C/c2cccc(C(=O)O)c2)c(Cl)c1` [GW4064], the 50% inhibitory concentration (IC50) at human LXRα (setting [2]) and at human LXRβ (setting [3]) was greater than 10 µM throughout.
Consider `COc1cccc(Cn2cc(C(=O)Nc3ccc(C)c(S(=O)(=O)N4CCOCC4)c3)c(-c3ccc(C)cc3)n2)c1` [DY268], for which the “FXR (GW4064 100 nM) % min act” value at human FXR (NE = No effect) is recorded as 14%. Also, the IC50 is 0.148 ± 0.068 µM at human FXR (setting [1]), greater than 10 µM at human LXRα (setting [2]) and greater than 10 µM at human LXRβ (setting [3]).
With `Fc1ccc(-c2c3cccc(C(F)(F)F)c3nn2Cc2ccc(F)cc2Cl)cc1` [WAY252623], at human FXR (setting [1]), the half-maximal inhibitory concentration (IC50) was greater than 10 µM.
Take `CCOC(=O)Nc1ccc2c(c1)N(C(=O)CN(CC)CC)c1ccccc1CC2` [CINPA1]: the IC50 at human FXR (setting [1]), on human LXRα (setting [2]) and at human LXRβ (setting [3]) was greater than 10 µM in each case.
With `Cc1cc(C)c(S(=O)(=O)N(Cc2ccc(-c3cccc(S(C)(=O)=O)c3)cc2)Cc2ccc(C(F)(F)F)o2)c(C)c1` [GSK2033], the half-maximal inhibitory concentration (IC50) on human FXR (setting [1]) is greater than 10 µM; on human LXRβ, 0.01 ± 0.003 µM. The “LXRα (T0901317 20 nM) % min act” value on human LXRα (NE = No effect) turned out to be 2%. Moreover, at human LXRβ (NE = No effect), the “LXRβ (T0901317 100 nM) % min act” value was found to be 2%.
For the compound `CC(C)(C)c1nc(-c2cccc(NS(=O)(=O)c3c(F)cccc3F)c2F)c(-c2ccnc(N)n2)s1` [Dabrafenib], the half-maximal inhibitory concentration (IC50) at human FXR (setting [1]), at human LXRα (setting [2]) and at human LXRβ (setting [3]) was greater than 10 µM throughout.
For `O=C(Nc1ccc(C(O)(C(F)(F)F)C(F)(F)F)cc1)c1ccccc1Cl` [SR0987], the 50% inhibitory concentration (IC50) at human FXR (setting [1]), at human LXRα (setting [2]) and at human LXRβ (setting [3]) was greater than 10 µM throughout.
Take `Clc1ccccc1C(c1ccccc1)(c1ccccc1)n1ccnc1` [Clotrimazole, clotrimazole]: the 50% inhibitory concentration (IC50) at human LXRα (setting [2]) and on human LXRβ (setting [3]) was greater than 10 µM each time.
Consider `CCOP(=O)(OCC)C(=Cc1cc(C(C)(C)C)c(O)c(C(C)(C)C)c1)P(=O)(OCC)OCC` [SR12813], for which the IC50 at human FXR (setting [1]), at human LXRα (setting [2]) and on human LXRβ (setting [3]) was greater than 10 µM throughout.
On to `Cc1oc2ccccc2c1CNC(=O)NCc1cccs1` [S07662], for which the IC50 on human FXR (setting [1]), at human LXRα (setting [2]) and on human LXRβ (setting [3]) was greater than 10 µM in each case.
For the compound `O=C(Nc1ccc(C(O)(C(F)(F)F)C(F)(F)F)cc1)c1ccc(C(F)(F)F)cc1` [SR1078], the IC50 at human FXR (setting [1]), at human LXRα (setting [2]) and on human LXRβ (setting [3]) was greater than 10 µM each time.
Turning to `O=C(O)Cc1cccc(OCCCN(Cc2cccc(C(F)(F)F)c2Cl)CC(c2ccccc2)c2ccccc2)c1` [GW3965], the IC50 on human FXR stood at 5.8 ± 0.313 µM. Further, the “FXR (GW4064 100 nM) % min act” value at human FXR (NE = No effect) came to 25%.
With `Clc1ccc(-c2nc3sccn3c2/C=N/OCc2ccc(Cl)c(Cl)c2)cc1` [CITCO], the concentration for half-maximal inhibition (IC50) on human FXR (setting [1]), at human LXRα (setting [2]) and at human LXRβ (setting [3]) was greater than 10 µM throughout.
Take SPA70: the half-inhibitory concentration (IC50) on human FXR (setting [1]), on human LXRα (setting [2]) and on human LXRβ (setting [3]) was greater than 10 µM in each case.
For `Cc1cc(C)c(S(=O)(=O)N(CCc2cccc(Br)c2)Cc2ccc(-c3cccc(S(C)(=O)=O)c3)cc2)c(C)c1` [SR9243], the IC50 was greater than 10 µM at human FXR (setting [1]), 0.56 ± 0.099 µM on human LXRα and 0.059 ± 0.013 µM on human LXRβ. Also, the “LXRα (T0901317 20 nM) % min act” value at human LXRα (NE = No effect) is reported as 2%. In addition, the “LXRβ (T0901317 100 nM) % min act” value on human LXRβ (NE = No effect) was determined as 2%.
